Laboratory results as given in ChEMBL document CHEMBL5512601, “Small-molecule inhibitors targeting apoptosis signal-regulated kinase 1” (Eur J Med Chem, 2023).

How the values were obtained:
[1] = molecular target: T1, Mitogen-activated protein kinase kinase kinase 5 (Homo sapiens, UniProt Q99683); assay: Inhibition of ASK1 (unknown origin) preincubated with compound for 30 mins followed by ATP addition and measured after 120 mins by HTRF analysis
T1 sequence (Q99683 whole entry): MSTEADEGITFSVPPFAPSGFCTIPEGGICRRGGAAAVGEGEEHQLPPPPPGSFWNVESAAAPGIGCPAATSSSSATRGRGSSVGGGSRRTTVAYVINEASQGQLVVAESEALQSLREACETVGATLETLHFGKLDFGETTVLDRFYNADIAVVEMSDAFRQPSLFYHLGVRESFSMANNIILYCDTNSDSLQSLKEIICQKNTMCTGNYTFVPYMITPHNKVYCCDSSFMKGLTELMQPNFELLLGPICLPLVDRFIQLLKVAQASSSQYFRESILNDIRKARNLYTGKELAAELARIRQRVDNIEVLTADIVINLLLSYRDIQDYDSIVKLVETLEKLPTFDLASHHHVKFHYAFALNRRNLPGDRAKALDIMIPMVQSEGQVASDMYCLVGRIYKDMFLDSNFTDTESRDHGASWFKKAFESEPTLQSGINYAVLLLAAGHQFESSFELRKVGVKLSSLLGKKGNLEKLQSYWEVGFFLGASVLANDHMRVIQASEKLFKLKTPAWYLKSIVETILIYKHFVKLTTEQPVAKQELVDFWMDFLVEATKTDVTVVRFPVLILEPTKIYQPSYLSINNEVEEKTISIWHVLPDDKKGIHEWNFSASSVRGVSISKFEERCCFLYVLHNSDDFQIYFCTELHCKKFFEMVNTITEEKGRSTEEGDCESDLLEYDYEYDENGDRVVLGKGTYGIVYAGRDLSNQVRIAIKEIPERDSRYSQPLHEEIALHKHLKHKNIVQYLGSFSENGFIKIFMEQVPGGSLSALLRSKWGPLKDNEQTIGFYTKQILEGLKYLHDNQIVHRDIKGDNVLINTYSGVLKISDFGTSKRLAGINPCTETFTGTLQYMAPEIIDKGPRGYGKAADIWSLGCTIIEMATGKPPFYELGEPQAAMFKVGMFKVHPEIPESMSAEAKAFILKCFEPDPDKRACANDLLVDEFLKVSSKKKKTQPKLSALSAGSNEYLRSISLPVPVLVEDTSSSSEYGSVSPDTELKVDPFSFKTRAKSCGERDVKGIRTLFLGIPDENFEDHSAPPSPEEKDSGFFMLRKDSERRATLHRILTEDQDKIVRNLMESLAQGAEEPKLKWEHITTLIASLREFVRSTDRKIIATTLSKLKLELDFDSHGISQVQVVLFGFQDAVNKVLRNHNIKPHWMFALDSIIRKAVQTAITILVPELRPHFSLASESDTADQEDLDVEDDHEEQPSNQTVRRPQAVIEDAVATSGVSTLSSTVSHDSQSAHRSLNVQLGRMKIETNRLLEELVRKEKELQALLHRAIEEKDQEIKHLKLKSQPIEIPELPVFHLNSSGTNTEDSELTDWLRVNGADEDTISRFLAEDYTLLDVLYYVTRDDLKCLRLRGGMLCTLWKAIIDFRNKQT

[2] = molecular target: T1, Mitogen-activated protein kinase kinase kinase 5; assay: Inhibition of ASK1 (unknown origin)
[3] = molecular target: T1, Mitogen-activated protein kinase kinase kinase 5; assay: Inhibition of ASK1 (unknown origin) incubated for 0.5 to 5 hrs by TR-FRET assay
[4] = molecular target: T1, Mitogen-activated protein kinase kinase kinase 5; assay: Inhibition of full length GST-tagged recombinant human ASK1 using MBP as substrate incubated for 20 mins by cell based assay
[5] = molecular target: T1, Mitogen-activated protein kinase kinase kinase 5; assay: Inhibition of human ASK1 using STK-substrate biotin as substrate by TR-FRET assay
[6] = molecular target: 3-phosphoinositide-dependent protein kinase 1 (Homo sapiens) (UniProt O15530); assay: Inhibition of PDK1 (unknown origin) at 10 uM relative to control
[7] = molecular target: T1, Mitogen-activated protein kinase kinase kinase 5; assay: Inhibition of N-terminal his-tagged human ASK1 (649 to 946 residues) expressed in Escherichia coli using [gamma-32p]ATP as substrate by liquid scintillation counting analysis
[8] = molecular target: T1, Mitogen-activated protein kinase kinase kinase 5; assay: Inhibition of human ASK1
[9] = Toxicity in C57BL/6J mouse harboring SOD1 mutant assessed as animal survival (reference value: 1.06%); details: in vivo, read-out: Activity
[10] = molecular target: T1, Mitogen-activated protein kinase kinase kinase 5; assay: Inhibition of human recombinant ASK1 by HTRF assay
[11] = molecular target: T1, Mitogen-activated protein kinase kinase kinase 5; assay: Inhibition of ASK1 (unknown origin) incubated for 2 hrs
[12] = molecular target: T1, Mitogen-activated protein kinase kinase kinase 5; assay: Inhibition of ASK1 phosphorylation in HEK293T cells incubated for 1 hr; type: cell-based
[13] = Unbound brain-to-plasma concentration ratio in rat at 1 mg/kg, iv by LC-MS/MS analysis; type: ADME, organism-based; details: brain and plasma, read-out: K(p,uu,brain)
[14] = Cmax in rat 5 mg/kg, po measured upto 24 hrs by LC-MS/MS analysis; type: ADME, organism-based; details: in vivo
[15] = AUC (0 to t) in rat 5 mg/kg, po measured upto 24 hrs by LC-MS/MS analysis; type: ADME, organism-based; details: in vivo
[16] = Half life in rat 5 mg/kg, po measured upto 24 hrs by LC-MS/MS analysis; type: ADME, organism-based; details: in vivo
[17] = molecular target: T1, Mitogen-activated protein kinase kinase kinase 5; assay: Inhibition of ASK1 in HEK293 cells; type: cell-based
[18] = Apparent permeability of compound across apical to basolateral side in human Caco2 cells; type: ADME, cell-based; details: Caco-2
[19] = Half life in Sprague-Dawley rat at 1 mg/kg, iv by LC-MS/MS analysis; type: ADME, organism-based; details: in vivo
[20] = Oral bioavailability in Sprague-Dawley rat at 1 mg/kg by LC-MS/MS analysis; type: ADME, organism-based; details: in vivo

Chain of 3-phosphoinositide-dependent protein kinase 1 (Homo sapiens) (O15530 whole entry, looked up, the tested form may be a part): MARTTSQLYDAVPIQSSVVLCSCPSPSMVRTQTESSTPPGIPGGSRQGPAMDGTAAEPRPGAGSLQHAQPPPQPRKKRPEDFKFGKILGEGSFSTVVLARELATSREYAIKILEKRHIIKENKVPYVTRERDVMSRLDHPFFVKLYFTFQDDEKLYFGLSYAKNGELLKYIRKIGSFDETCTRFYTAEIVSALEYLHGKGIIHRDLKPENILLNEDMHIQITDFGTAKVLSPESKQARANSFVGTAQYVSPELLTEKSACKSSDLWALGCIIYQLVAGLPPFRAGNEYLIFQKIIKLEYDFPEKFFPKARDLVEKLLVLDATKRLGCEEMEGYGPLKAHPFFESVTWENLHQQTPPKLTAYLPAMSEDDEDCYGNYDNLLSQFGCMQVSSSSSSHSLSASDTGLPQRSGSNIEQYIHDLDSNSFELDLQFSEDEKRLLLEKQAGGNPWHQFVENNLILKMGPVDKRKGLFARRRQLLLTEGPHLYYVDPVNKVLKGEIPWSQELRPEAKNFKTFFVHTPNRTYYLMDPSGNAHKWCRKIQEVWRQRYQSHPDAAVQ

CC(C)n1cnnc1-c1cccc(-n2cnc3ccc(-n4cnc(C5CC5)c4)cc3c2=O)n1
IC50 [1]: 11.1 nM

CC(C)n1cnnc1-c1cccc(NC(=O)c2cc3c(cc2F)CNCc2nc(C4CC4)cn2-3)n1
IC50 [2]: < 10 nM

Cc1cc(F)c(C(=O)Nc2cccc(-c3nnc4n3CCCC4)n2)cc1-n1cnc(C2CC2)c1
IC50 [3]: 18 nM | IC50 [4]: ≤ 100 nM

CC(C)n1cnnc1-c1cccc(NC(=O)c2cc3c(cc2F)CNCCc2c(C4CC4)ncn2-3)n1
IC50 [2]: < 10 nM

Cc1ccc(NC(=O)Nc2cccc(-c3nncn3C(C)C)n2)c(F)c1
EC50 [5]: ≤ 500 nM

CC(C)n1cnnc1-c1cccc(NC(=O)c2cc(-n3cnc(C4CC4)c3)ccn2)c1
inhibition [6]: 0.04%

CC(C)n1cnnc1-c1cccc(N2CC(C)(C)c3ccc(-n4cnc(C5CC5)c4)cc3C2=O)n1
IC50 [2]: 5.91 nM

CC(C)n1cnnc1-c1cccc(-c2cn(C)c3ccc(-n4cnc(C5CC5)c4)cc3c2=O)n1
IC50 [1]: 1.37 nM

C=C(C)[C@@H]1CC[C@]2(C(=O)O)CC[C@]3(C)[C@H](C[C@H]4OC(=O)C[C@@H](O)[C@]5(C)[C@@H]4[C@@]3(C)CC[C@H]5C(=C)C)[C@@H]12
IC50 [7]: 370 nM

CC(C)n1cnnc1-c1cccc(-c2coc3ccc(-n4cnc(C5CC5)c4)cc3c2=O)n1
IC50 [1]: 1.14 nM

CC(C)n1cnnc1-c1cccc(NC(=O)c2cc3c(cc2F)CNCc2c(C4CC4)ncn2-3)n1
IC50 [2]: < 10 nM

COc1cc2ccn(-c3cccc(-c4nncn4C(C)C)n3)c(=O)c2cc1-n1cnc(C2CC2)c1
IC50 [2]: 1.65 nM

COc1cc2nccc(Oc3ccc(NC(=O)c4cn(C(C)C)c5c(c4=O)CCC=C5)cc3)c2cc1OC
IC50 [8]: 6 nM | survival [9]: 1.09%

CC(C)n1cnnc1-c1nc(NC(=O)c2cc3c(cc2F)CCCc2nc(C4CC4)cn2-3)cs1
IC50 [2]: > 50 nM

Cc1ccc(-n2ccn(-c3cccc(-c4nncn4C(C)C)n3)c2=O)c(F)c1
IC50 [10]: 50 nM | EC50 [5]: ≤ 500 nM

CC(C)n1cnnc1-c1cccc(-n2ccc3ccc(-n4cnc(C5CC5)c4)cc3c2=O)n1
IC50 [2]: 2.71 nM

Cn1nc(C(F)(F)F)c2cc(C(=O)Nc3cccc(-c4nncn4C4CC4)n3)c(=O)[nH]c21
IC50 [2]: 2660 nM | inhibition [6]: 42.9%

Cc1cc2c(cc1-n1cnc(C3CC3)c1)C(=O)N(c1cccc(-c3nncn3C(C)C)n1)CC2
IC50 [2]: 2.2 nM

Cc1cc(F)c(C(=O)Nc2cccc(-c3nnc4ncncn34)n2)cc1-n1cnc(C2CC2)c1
IC50 [3]: 14 nM

C[C@H]1CCCOc2ncc(-c3ccncc3)cc2C(=O)Nc2cccc(n2)-c2nncn21
IC50 [11]: ≤ 100 nM | IC50 [12]: ≤ 100 nM | Kp uu [13]: ≥ 0.1

Cc1ccc(N(C)C(=O)Nc2cccc(-c3nncn3C(C)C)n2)c(F)c1
EC50 [5]: ≤ 5000 nM

Cc1cc(F)c(C(=O)Nc2cccc(-c3nnc4[nH]ccn34)n2)cc1-n1cnc(C2CC2)c1
IC50 [3]: 6.7 nM

C=C(C)[C@@H]1CC[C@]2(C(=O)O)CC[C@]3(C)[C@H](C[C@@H](O)[C@@H]4[C@@]5(C)C(CC(=O)O)OC(C)(C)C5CC[C@]43C)[C@@H]12 (stereo partly specified)
IC50 [7]: 449 nM

Cc1cc(F)c(C(=O)Nc2cccc(-c3nnc4sccn34)n2)cc1-n1cnc(C2CC2)c1
IC50 [3]: 4.1 nM

Cc1cc(F)c(C(=O)Nc2cccc(-c3nnc4n3CCNC4)n2)cc1-n1cnc(C2CC2)c1
IC50 [3]: 47.8 nM

CC(C)n1cnnc1-c1cccc(-n2ncc3ccc(-n4cnc(C5CC5)c4)cc3c2=O)n1
IC50 [1]: 0.9 nM

Cc1cc(F)c(C(=O)Nc2cccc(-c3nnc4n3CCOC4)n2)cc1-n1cnc(C2CC2)c1
IC50 [3]: 6.1 nM

CC(C)n1cnnc1-c1cccc(NC(=S)Nc2ccccn2)n1
IC50 [10]: 50 nM | EC50 [5]: ≤ 500 nM

CC(C)n1cnnc1-c1cccc(N2CCOc3ccc(-n4cnc(C5CC5)c4)cc3C2=O)n1
IC50 [1]: 4.26 nM

CC(C)n1cnnc1-c1cccc(N2Cc3ccc(-n4cnc(C5CC5)c4)cc3C2=O)n1
IC50 [2]: 0.93 nM

C=C(C)[C@@H]1CC[C@]2(C(=O)N(CCOCCOn3nnc4ccccc43)C(=O)OC(C)(C)C)CC[C@]3(C)[C@H](C[C@H]4OC(=O)C[C@@H](O)[C@]5(C)[C@@H]4[C@@]3(C)CC[C@H]5C(=C)C)[C@@H]12
IC50 [7]: 2.02 nM

CC(C)n1cnnc1-c1cccc(NC(=O)c2cc3c(cc2F)COCc2nc(C4CC4)cn2-3)n1
IC50 [2]: < 10 nM

CC(C)n1cnnc1-c1nc(NC(=O)c2cc3c(cc2F)CNCc2nc(C4CC4)cn2-3)cs1
IC50 [2]: > 50 nM

C[C@H](CO)n1cnnc1-c1cccc(N2CCN(c3ccc(C(=O)N4CCCCC4)cn3)C2=O)n1
IC50 [10]: ≤ 50 nM | EC50 [5]: ≤ 50 nM

CC(C)n1cnnc1-c1cccc(C(=O)Nc2cc(-n3cnc(C4CC4)c3)ccn2)n1
IC50 [10]: 0.7 nM

CC(C)n1cnnc1-c1nc(NC(=O)c2cc3c(cc2F)C(=O)NCc2nc(C4CC4)cn2-3)cs1
IC50 [2]: > 50 nM

CC(C)n1cnnc1-c1cccc(NC(=O)c2cc3c(cc2F)CCCc2nc(C4CC4)cn2-3)n1
IC50 [2]: < 10 nM

COc1cc2nncc(Oc3ccc(NC(=O)c4cn(C(C)C)c5c(c4=O)CCC=C5)cc3)c2cc1OC
IC50 [8]: 6 nM | survival [9]: 1.08%

CC(C)n1cnnc1-c1cccc(N2C(=O)c3ccc(-n4cnc(C5CC5)c4)cc3C2(C)C)n1
IC50 [2]: 3.22 nM

CC(C)n1cnnc1-c1cccc(N2Cc3cc(-n4cnc(C5CC5)c4)ccc3C2=O)n1
IC50 [2]: 1.78 nM

CC(C)n1nnnc1-c1cccc(N2C(=O)c3cc(-n4cnc(C5CC5)c4)ccc3C2(C)C)n1
IC50 [2]: 5.09 nM | IC50 [3]: 3.9 nM

C=C(C)[C@@H]1CC[C@]2(C(=O)O)CC[C@]3(C)[C@H](C[C@@H](O)[C@@H]4[C@@](C)([C@H](O)CC(=O)O)[C@H](C(=C)C)CC[C@]43C)[C@@H]12
IC50 [7]: 407 nM

Cc1cc(F)c(C(=O)Nc2cccc(-c3nnc4n3CCCC4)n2)cc1-n1cnc(C2CC2)n1
IC50 [4]: ≤ 100 nM

Cc1cc2c(cc1-n1cnc(C3CC3)c1)C(=O)N(c1cccc(-c3nncn3C(C)C)n1)C2
Cmax [14]: 8190 ng/mL | AUC(0-t) at 24 h [15]: 19200 ng·h/mL | half-life [16]: 1.3 h | IC50 [3]: 3.9 nM

Cc1cc(F)c(C(=O)Nc2cccc(-c3nnc4n3CCS(=O)(=O)C4)n2)cc1-n1cnc(C2CC2)c1
IC50 [3]: 10 nM

CC(C)n1cnnc1-c1cccc(N2CCc3ccc(-n4cnc(C5CC5)c4)cc3C2=O)n1
IC50 [2]: 1.83 nM

Cc1ccc(-c2cnc(-c3cccc(-c4nncn4C(C)C)n3)o2)c(F)c1
IC50 [10]: ≤ 50 nM

CC(C)n1cnnc1-c1cccc(NC(=O)c2cccc(-n3cnc(C4CC4)c3)c2)n1
EC50 [17]: 3.4 nM | Papp A→B [18]: 3.1 ×10⁻⁶ cm/s | half-life [19]: 0.59 h | bioavailability [20]: 11%

C=C(C)[C@@H]1CC[C@]2(C(=O)On3nnc4ccccc43)CC[C@]3(C)[C@H](C[C@@H](O)[C@@H]4[C@@]5(C)C(CC(=O)OCC)OC(C)(C)C5CC[C@]43C)[C@@H]12 (stereo partly specified)
IC50 [7]: 5.08 nM

Cc1cc2c(cc1-n1cnc(C3CC3)c1)C(=O)N(c1cccc(-c3nncn3C(C)C)n1)C2C (stereo unspecified)
Cmax [14]: 2270 ng/mL | AUC(0-t) at 24 h [15]: 9430 ng·h/mL | half-life [16]: 2.9 h

Cc1ccc(-c2cnc(-c3cccc(-c4nncn4C(C)C)n3)s2)c(F)c1
IC50 [10]: 50 nM

Cc1cc(F)c(C(=O)Nc2cccc(-c3nnc4n3CCCC4)n2)cc1-n1cc(C2CC2)nn1
IC50 [4]: > 100 nM

Cc1cc(F)c(C(=O)Nc2cccc(-c3nnc4ccccn34)n2)cc1-n1cnc(C2CC2)c1
IC50 [3]: 7.8 nM
